In PubChem BioAssay (NCI):
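48-hour exposure; five concentrations; linearly interpolated endpoints. TGI: concentration producing complete growth inhibition.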

How the values were obtained:
Experiment in all cases: NCI tumour cell line growth inhibition, 48 h
HOP-92 NSCLC = tested on: HOP-92 NSCLC
HCT-15 colon = tested on: HCT-15 colon
ACHN renal = tested on: ACHN renal
UACC-62 melanoma = tested on: UACC-62 melanoma
DLD-1 colon = tested on: DLD-1 colon
SF-295 CNS = tested on: SF-295 CNS
HCC-2998 colon = tested on: HCC-2998 colon
SK-MEL-5 melanoma = tested on: SK-MEL-5 melanoma
OVCAR-4 ovarian = tested on: OVCAR-4 ovarian
HT29 colon = tested on: HT29 colon
NCI-H23 lung = tested on: NCI-H23 lung
UO-31 renal = tested on: UO-31 renal
IGROV1 ovarian = tested on: IGROV1 ovarian
A549 NSCLC = tested on: A549 NSCLC
SNB-19 CNS = tested on: SNB-19 CNS
SN12C renal = tested on: SN12C renal
LOX IMVI melanoma = tested on: LOX IMVI melanoma
KM12 colon = tested on: KM12 colon
U251 CNS = tested on: U251 CNS
EKVX NSCLC = tested on: EKVX NSCLC
NCI-H460 lung = tested on: NCI-H460 lung
SNB-78 CNS = tested on: SNB-78 CNS
786-0 renal = tested on: 786-0 renal
SF-539 CNS = tested on: SF-539 CNS
SK-MEL-2 melanoma = tested on: SK-MEL-2 melanoma
SW-620 colon = tested on: SW-620 colon
OVCAR-3 ovarian = tested on: OVCAR-3 ovarian
TK-10 renal = tested on: TK-10 renal
LXFL 529 NSCLC = tested on: LXFL 529 NSCLC
SK-MEL-28 melanoma = tested on: SK-MEL-28 melanoma
HOP-62 NSCLC = tested on: HOP-62 NSCLC
HCT-116 colon = tested on: HCT-116 colon
OVCAR-8 ovarian = tested on: OVCAR-8 ovarian
SF-268 CNS = tested on: SF-268 CNS
M14 melanoma = tested on: M14 melanoma
UACC-257 melanoma = tested on: UACC-257 melanoma
DMS 273 small cell lung = tested on: DMS 273 small cell lung
CAKI-1 renal = tested on: CAKI-1 renal
NCI-H522 lung = tested on: NCI-H522 lung
KM20L2 colon = tested on: KM20L2 colon
M19-MEL melanoma = tested on: M19-MEL melanoma
DMS 114 small cell lung = tested on: DMS 114 small cell lung
HOP-18 NSCLC = tested on: HOP-18 NSCLC
HL-60(TB) leukemia = tested on: HL-60(TB) leukemia
MALME-3M melanoma = tested on: MALME-3M melanoma
COLO 205 colon = tested on: COLO 205 colon
RXF 393 renal = tested on: RXF 393 renal
MOLT-4 leukemia = tested on: MOLT-4 leukemia
NCI-H226 lung = tested on: NCI-H226 lung
XF 498 CNS = tested on: XF 498 CNS
SNB-75 CNS = tested on: SNB-75 CNS
SR leukemia = tested on: SR leukemia
CCRF-CEM leukemia = tested on: CCRF-CEM leukemia
SK-OV-3 ovarian = tested on: SK-OV-3 ovarian
K-562 leukemia = tested on: K-562 leukemia
RPMI-8226 leukemia = tested on: RPMI-8226 leukemia

Measured: TGI

Cc1ccc(C(=O)NC(C)(C)C)cc1N=NN(C)C
not listed: M19-MEL melanoma | DMS 114 small cell lung | HOP-18 NSCLC | HL-60(TB) leukemia | MALME-3M melanoma | COLO 205 colon | RXF 393 renal | MOLT-4 leukemia | NCI-H226 lung | XF 498 CNS | SNB-75 CNS | SR leukemia | CCRF-CEM leukemia | SK-OV-3 ovarian | K-562 leukemia | RPMI-8226 leukemia
> 100 µM: all other assays above

O=C(CSc1nnc(-c2ccc(N=Cc3ccc(Cl)cc3)cc2)o1)Nc1cccc(Cl)c1
not listed: HOP-92 NSCLC | DLD-1 colon | HCC-2998 colon | IGROV1 ovarian | SF-539 CNS | OVCAR-3 ovarian | CAKI-1 renal
> 100 µM: all other assays above
